# In patent publication US20050070510A1, “Substituted tetracycline compounds as synergistic antifungal agents” (Paratek Pharmaceuticals, Inc., priority 2001, published 2005):
# Test system: COS-1 cells
# Assay: In vitro mammalian cytotoxicity assay (Resazurin)
row,Structure (SMILES),In Vitro Cytotoxicity
1,CN(C)[C@@H]1C(O)=C(C(N)=O)C(=O)[C@@]2(C#N)C(O)=C3C(=O)c4c(O)ccc(-c5ccccc5Cl)c4C[C@@]3(N)C[C@@]12N [GM],** (toxicities less than 25 μg/mL are represented by **)
2,CN(C)[C@@H]1C(O)=C(C(N)=O)C(=O)[C@@]2(C#N)C(O)=C3C(=O)c4c(ccc(NC(=O)OCC(C)(C)C)c4O)[C@H](N)[C@@]3(N)[C@H](O)[C@@]12N [BI],** (toxicities less than 25 μg/mL are represented by **)
3,CN(C)c1ccc(O)c2c1C[C@@]1(N)C[C@@]3(N)[C@H](N(C)C)C(O)=C(C(=O)NCNC(=O)CCl)C(=O)[C@@]3(C#N)C(O)=C1C2=O [KG],** (toxicities less than 25 μg/mL are represented by **)
4,CN(C)c1cc(C2C=CCC2)c(O)c2c1C[C@@]1(N)C[C@@]3(N)[C@H](N(C)C)C(O)=C(C(N)=O)C(=O)[C@@]3(C#N)C(O)=C1C2=O (some centres unmarked) [DO],** (toxicities less than 25 μg/mL are represented by **)
5,CC(=O)c1cc(C(C)=O)c2c(c1O)C(=O)C1=C(O)[C@]3(C#N)C(=O)C(C(N)=O)=C(O)[C@@H](N(C)C)[C@]3(N)C[C@]1(N)C2 [LL],* (toxicities greater than >25 μg/ml are represented by *)
6,CN(C)[C@@H]1C(O)=C(C(N)=O)C(=O)[C@@]2(C#N)C(O)=C3C(=O)c4c(O)cccc4C(N)[C@@]3(N)[C@H](OC(=O)CNC(=O)OC(C)(C)C)[C@@]12N (some centres unmarked) [AU],** (toxicities less than 25 μg/mL are represented by **)
7,COc1ccc(-c2ccc3c(c2O)C(=O)C2=C(O)[C@]4(C#N)C(=O)C(C(N)=O)=C(O)[C@@H](N(C)C)[C@]4(N)[C@@H](O)[C@]2(N)[C@H]3N)cc1CN1CCCC1 [PQ],* (toxicities greater than >25 μg/ml are represented by *)
8,CCCCC#Cc1ccc(O)c2c1C[C@@]1(N)C[C@@]3(N)[C@H](N(C)C)C(O)=C(C(N)=O)C(=O)[C@@]3(C#N)C(O)=C1C2=O [IG],** (toxicities less than 25 μg/mL are represented by **)
9,CN(C)[C@@H]1C(O)=C(C(N)=O)C(=O)[C@@]2(C#N)C(O)=C3C(=O)c4c(ccc(-c5ccc(C=O)c6ccccc56)c4O)[C@H](N)[C@@]3(N)[C@H](O)[C@@]12N [PN],** (toxicities less than 25 μg/mL are represented by **)
10,CN(C)[C@@H]1C(O)=C(C(N)=O)C(=O)[C@@]2(C#N)C(O)=C3C(=O)c4c(ccc(-c5ccc(F)cc5)c4O)[C@H](N)[C@@]3(N)[C@H](O)[C@@]12N [BR],** (toxicities less than 25 μg/mL are represented by **)
11,CCOC(=O)CNCc1ccc(OC)c(-c2ccc(O)c3c2C[C@@]2(N)C[C@@]4(N)[C@H](N(C)C)C(O)=C(C(N)=O)C(=O)[C@@]4(C#N)C(O)=C2C3=O)c1 [NK],* (toxicities greater than >25 μg/ml are represented by *)
12,CCc1cc(-c2ccc(N(C)C)cc2)c2c(c1O)C(=O)C1=C(O)[C@]3(C#N)C(=O)C(C(N)=O)=C(O)[C@@H](N(C)C)[C@]3(N)C[C@]1(N)C2 [PE],** (toxicities less than 25 μg/mL are represented by **)
13,COc1ccc(CN2CCCC2)cc1-c1ccc2c(c1O)C(=O)C1=C(O)[C@]3(C#N)C(=O)C(C(N)=O)=C(O)[C@@H](N(C)C)[C@]3(N)[C@@H](O)[C@]1(N)[C@H]2N [PR],* (toxicities greater than >25 μg/ml are represented by *)
14,CCCC(C)(C)NC(=O)C1=C(O)[C@@H](N(C)C)[C@]2(N)[C@@H](O)[C@@]3(N)C(=C(O)[C@]2(C#N)C1=O)C(=O)c1c(O)ccc(N(C)C)c1[C@@H]3N [BE],** (toxicities less than 25 μg/mL are represented by **)
15,CC#Cc1cc(N(C)C)c2c(c1O)C(=O)C1=C(O)[C@]3(C#N)C(=O)C(C(N)=O)=C(O)[C@@H](N(C)C)[C@]3(N)C[C@]1(N)C2 [FH],* (toxicities greater than >25 μg/ml are represented by *)
16,COc1ccc(CNCC(C)C)cc1-c1ccc(O)c2c1C[C@@]1(N)C[C@@]3(N)[C@H](N(C)C)C(O)=C(C(N)=O)C(=O)[C@@]3(C#N)C(O)=C1C2=O [LW],* (toxicities greater than >25 μg/ml are represented by *)
17,Cc1cccnc1-c1ccc(O)c2c1C[C@@]1(N)C[C@@]3(N)[C@H](N(C)C)C(O)=C(C(N)=O)C(=O)[C@@]3(C#N)C(O)=C1C2=O [UW],* (toxicities greater than >25 μg/ml are represented by *)
18,CN(C)[C@@H]1C(O)=C(C(N)=O)C(=O)[C@@]2(C#N)C(O)=C3C(=O)c4c(O)ccc(-c5ccc(Cl)cc5)c4C[C@@]3(N)C[C@@]12N [DM],** (toxicities less than 25 μg/mL are represented by **)
19,COc1ccc(CN2CCOCC2)cc1-c1ccc(O)c2c1C[C@@]1(N)C[C@@]3(N)[C@H](N(C)C)C(O)=C(C(N)=O)C(=O)[C@@]3(C#N)C(O)=C1C2=O [HU],* (toxicities greater than >25 μg/ml are represented by *)
20,CN(C)[C@@H]1C(O)=C(C(N)=O)C(=O)[C@@]2(C#N)C(O)=C3C(=O)c4c(O)c(C(=O)NCC5CCCO5)cc(-c5ccc(F)cc5)c4C[C@@]3(N)C[C@@]12N (some centres unmarked) [KZ],* (toxicities greater than >25 μg/ml are represented by *)
21,CN(C)[C@@H]1C(O)=C(C(N)=O)C(=O)[C@@]2(C#N)C(O)=C3C(=O)c4c(O)ccc(-c5ccc(C(=O)O)c6ccccc56)c4C[C@@]3(N)C[C@@]12N [NM],** (toxicities less than 25 μg/mL are represented by **)

row,Structure (SMILES),In Vitro Cytotoxicity
1,CN(C)c1cc(NCC2=CC=C(C(C)(C)C)CC2)c(O)c2c1C[C@@]1(N)C[C@@]3(N)[C@H](N(C)C)C(O)=C(C(N)=O)C(=O)[C@@]3(C#N)C(O)=C1C2=O [TX],** (toxicities less than 25 μg/mL are represented by **)
2,CN(C)c1cc(CCC2(O)CCCC2)c(O)c2c1C[C@@]1(N)C[C@@]3(N)[C@H](N(C)C)C(O)=C(C(N)=O)C(=O)[C@@]3(C#N)C(O)=C1C2=O [PW],** (toxicities less than 25 μg/mL are represented by **)
3,CN(C)c1cc(-c2ccc(CN3CCCC3)o2)c(O)c2c1C[C@@]1(N)C[C@@]3(N)[C@H](N(C)C)C(O)=C(C(N)=O)C(=O)[C@@]3(C#N)C(O)=C1C2=O [SQ],* (toxicities greater than >25 μg/ml are represented by *)
4,COC(CN(Cc1ccc(O)c2c1C[C@@]1(N)C[C@@]3(N)[C@H](N(C)C)C(O)=C(C(N)=O)C(=O)[C@@]3(C#N)C(O)=C1C2=O)CC(OC)OC)OC [SG],* (toxicities greater than >25 μg/ml are represented by *)
5,CN(C)c1cc(C#CCNS(C)(=O)=O)c(O)c2c1C[C@@]1(N)C[C@@]3(N)[C@H](N(C)C)C(O)=C(C(N)=O)C(=O)[C@@]3(C#N)C(O)=C1C2=O [IP],* (toxicities greater than >25 μg/ml are represented by *)
6,CN(C)[C@@H]1C(O)=C(C(N)=O)C(=O)[C@@]2(C#N)C(O)=C3C(=O)c4c(O)ccc(-c5cccc(N)c5)c4C[C@@]3(N)C[C@@]12N [FC],** (toxicities less than 25 μg/mL are represented by **)
7,CN(C)[C@@H]1C(O)=C(C(N)=O)C(=O)[C@@]2(C#N)C(O)=C3C(=O)c4c(O)ccc(C(=O)O)c4C[C@@]3(N)C[C@@]12N [JR],* (toxicities greater than >25 μg/ml are represented by *)
8,CN(C)c1ccc(-c2cc(C#CC3=CCCCC3)c(O)c3c2C[C@@]2(N)C[C@@]4(N)[C@H](N(C)C)C(O)=C(C(N)=O)C(=O)[C@@]4(C#N)C(O)=C2C3=O)cc1 [QO],** (toxicities less than 25 μg/mL are represented by **)
9,CN(C)[C@@H]1C(O)=C(C(N)=O)C(=O)[C@@]2(C#N)C(O)=C3C(=O)c4c(ccc(Nc5ccc(-c6ccccc6)s5)c4O)[C@H](N)[C@@]3(N)[C@H](O)[C@@]12N [DT],** (toxicities less than 25 μg/mL are represented by **)
10,CN(C)[C@@H]1C(O)=C(C(N)=O)C(=O)[C@@]2(C#N)C(O)=C3C(=O)c4c(O)c(C(C)(C)C)cc(-c5ccc6c(c5)OCO6)c4C[C@@]3(N)C[C@@]12N [NT],** (toxicities less than 25 μg/mL are represented by **)
11,CN(C)c1cc(NCCc2ccccc2)c(O)c2c1C[C@@]1(N)C[C@@]3(N)[C@H](N(C)C)C(O)=C(C(N)=O)C(=O)[C@@]3(C#N)C(O)=C1C2=O [LN],** (toxicities less than 25 μg/mL are represented by **)
12,CCCCCC(=O)c1ccc(O)c2c1C[C@@]1(N)C[C@@]3(N)[C@H](N(C)C)C(O)=C(C(N)=O)C(=O)[C@@]3(C#N)C(O)=C1C2=O [MO],** (toxicities less than 25 μg/mL are represented by **)
13,CN(C)c1cc(NC(=O)Nc2ccccc2)c(O)c2c1C[C@@]1(N)C[C@@]3(N)[C@H](N(C)C)C(O)=C(C(N)=O)C(=O)[C@@]3(C#N)C(O)=C1C2=O [IB],* (toxicities greater than >25 μg/ml are represented by *)
14,CCc1ccc(-c2cc(N(C)C)c3c(c2O)C(=O)C2=C(O)[C@]4(C#N)C(=O)C(C(N)=O)=C(O)[C@@H](N(C)C)[C@]4(N)C[C@]2(N)C3)cc1 [LZ],** (toxicities less than 25 μg/mL are represented by **)
15,CN(C)[C@@H]1C(O)=C(C(N)=O)C(=O)[C@@]2(C#N)C(O)=C3C(=O)c4c(O)ccc(-c5ccc(CN6CCOCC6)c6ccccc56)c4C[C@@]3(N)C[C@@]12N [ON],** (toxicities less than 25 μg/mL are represented by **)
16,CN(C)[C@@H]1C(O)=C(C(N)=O)C(=O)[C@@]2(C#N)C(O)=C3C(=O)c4c(O)c(F)cc(CN)c4C[C@@]3(N)C[C@@]12N [NQ],** (toxicities less than 25 μg/mL are represented by **)
17,CN(C)c1cc(NC(=O)CNC(C)(C)C)c(O)c2c1C[C@@]1(N)C[C@@]3(N)[C@H](N(C)C)C(O)=C(C(N)=O)C(=O)[C@@]3(C#N)C(O)=C1C2=O [LC],* (toxicities greater than >25 μg/ml are represented by *)
18,CCOC(=O)CNCc1ccc(-c2ccc(O)c3c2C[C@@]2(N)C[C@@]4(N)[C@H](N(C)C)C(O)=C(C(N)=O)C(=O)[C@@]4(C#N)C(O)=C2C3=O)c2ccccc12 [OQ],** (toxicities less than 25 μg/mL are represented by **)
19,COc1cc(C/C=C\c2ccc(O)c3c2C[C@@]2(N)C[C@@]4(N)[C@H](N(C)C)C(O)=C(C(N)=O)C(=O)[C@@]4(C#N)C(O)=C2C3=O)ccc1O [HW],** (toxicities less than 25 μg/mL are represented by **)
20,CN(C)[C@@H]1C(O)=C(C(N)=O)C(=O)[C@@]2(C#N)C(O)=C3C(=O)c4c(ccc(NC5CCC(Cc6ccccc6)CC5)c4O)[C@H](N)[C@@]3(N)[C@H](O)[C@@]12N (some centres unmarked) [RS],* (toxicities greater than >25 μg/ml are represented by *)
